Experimental findings from publication PMC8991199, “Promiscuity mapping of the S100 protein family using a high-throughput holdup assay” (Scientific Reports, 2022) are described below.

Format in all cases: binding
Test [1] concerns the target T1, S100A3 (Homo sapiens, UniProt P33764).
T1 sequence (P33764 1-101): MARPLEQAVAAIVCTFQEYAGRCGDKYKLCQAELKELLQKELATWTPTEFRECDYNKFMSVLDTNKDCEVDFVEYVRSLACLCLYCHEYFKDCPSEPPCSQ
Briefly: direct fluorescence polarization (FP), S100A3. To be noted: S100A3, 50 nM labeled foldamer, 20 mM HEPES pH 7.5, 150 mM NaCl, 1 mM CaCl2, 0.5 mM TCEP, 0.01% Tween20, quadratic fit, mean ± SEM, three technical repeats, threshold 1 mM. As to the method: (§1) HTP (and also low-throughput) measurements generally need to be validated by an orthogonal approach to eliminate experimental artifacts. […] This way, we chose WL, IF, WW, YF, IL, VL, TW, RF, RR, TI, TM, and after resynthesizing with a fluorescent label at the C-terminus (Figs. S15–S26, Table S1), the S100ome was tested against the labeled foldamers by direct fluorescence polarization (FP) (Fig. 3A). In this assay, the association of the fluorescently labeled foldamer and the S100 protein of interest is monitored, through the change in polarization of the emitted light by the fluorophore upon the binding event. In direct FP, the presence of the fluorophore might change the binding affinity of some foldamers. […] Nevertheless, we assumed that the fluorophore would affect all foldamers that target the same binding site to the same degree, because the foldamer scaffold is rigid. Defining the threshold of detection at the dissociation constant of 1 mM, we identified 87 interactions between the selected foldamer fragments and the S100ome out of 220 possible interactions (Table 1, Fig. S4-14).
(§2) Briefly, S100 proteins were cloned into a modified pET15b vector with a TEV protease cleavable N-terminal His6-tag and expressed in Escherichia coli BL21 (DE3) cells, followed by Ni^2+-affinity chromatography. For HU assay, S100 proteins were further purified by either hydrophobic interaction chromatography or ion exchange chromatography without the cleavage of the N-terminal His6-tag applying standard conditions. For direct FP measurements, the N-terminal His6-tag was cleaved, and the S100 proteins were purified by hydrophobic interaction chromatography, ion exchange chromatography or size exclusion chromatography. The quality of the recombinant proteins was checked by SDS-PAGE analysis in all cases. The concentration of the recombinant S100 proteins was determined by UV spectrophotometry using the absorbance of Tyr and Trp residues.
(§3) In direct fluorescence polarization assays, S100 proteins were diluted in a buffer containing 50 nM labeled foldamer, 20 mM HEPES pH 7.5, 150 mM NaCl, 1 mM CaCl2, 0.5 mM TCEP and 0.01% Tween20. The dilution series (50 µl) were divided into three technical repeats and transferred (15 µl) to a 384-well microplate. In competitive fluorescence polarization assays, the buffer applied in direct measurements was supplemented with the S100 protein of interest to reach a saturation of 60–80%. This mixture was titrated with the competitor (i.e. the unlabeled peptide). Fluorescence polarization was measured in 8 different S100 concentrations (one of which contained no S100 protein) on a Synergy H4 plate reader using 485 ± 20 nm and 528 ± 20 nm band-pass filters for excitation and emission, respectively. The Kd values were obtained by fitting the data from the FP measurements with the python-based ProFit software using quadratic and competitive binding equation for direct and competitive FP, respectively. The detection threshold was based on two parameters. First, we rejected all fitted dissociation constants above 1 mM.
(In general: Fluorescence polarisation rises when a labelled molecule tumbles more slowly, as on binding a larger partner.)

Test [2] has as its target T2, S100A5 (Homo sapiens, UniProt P33763).
T2 sequence (P33763 1-92): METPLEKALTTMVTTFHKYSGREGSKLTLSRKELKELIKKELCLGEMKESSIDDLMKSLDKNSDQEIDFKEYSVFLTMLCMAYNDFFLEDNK
Briefly: direct fluorescence polarization (FP), S100A5. To be noted: direct FP, S100A5, 50 nM labeled foldamer, 20 mM HEPES pH 7.5, 150 mM NaCl, 1 mM CaCl2, 0.5 mM TCEP, 0.01% Tween20, quadratic fit, mean ± SEM, three technical repeats, threshold 1 mM. As to the method:
as §1
To ensure that foldamer fragments bind to the hydrophobic binding groove of S100 proteins, which opens upon binding of calcium ions, we performed FP experiments on a selected S100 protein, S100A5, in the presence of EDTA and TRTK12, an S100-binding peptide of 12 amino acids. […] Based on the similarity and redundancy among the S100 family, it can be assumed that all S100 proteins bind the members of the H14 foldamer library through their hydrophobic binding pocket in a Ca^2+-dependent manner.
as §2, §3

For test [3], the target named is T3, S100A11 (Homo sapiens, UniProt P31949).
T3 sequence (P31949 1-105): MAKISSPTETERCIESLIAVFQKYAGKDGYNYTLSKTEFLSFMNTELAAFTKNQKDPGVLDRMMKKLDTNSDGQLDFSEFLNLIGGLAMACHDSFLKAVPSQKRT
Nature of the test: direct fluorescence polarization (FP), S100A11. To be noted: S100A11, 50 nM labeled foldamer, 20 mM HEPES pH 7.5, 150 mM NaCl, 1 mM CaCl2, 0.5 mM TCEP, 0.01% Tween20, quadratic fit, mean ± SEM, three technical repeats, threshold 1 mM. As to the method:
as §1, §2, §3

Test [4] deals with T4, S100A13 (Homo sapiens, UniProt Q99584).
T4 sequence (Q99584 1-98): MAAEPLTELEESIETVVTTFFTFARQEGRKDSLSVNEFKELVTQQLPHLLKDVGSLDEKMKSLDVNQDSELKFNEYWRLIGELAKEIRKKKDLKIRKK
Nature of the test: direct fluorescence polarization (FP), S100A13. To be noted: S100A13, 50 nM labeled foldamer, 20 mM HEPES pH 7.5, 150 mM NaCl, 1 mM CaCl2, 0.5 mM TCEP, 0.01% Tween20, quadratic fit, mean ± SEM, three technical repeats, threshold 1 mM. As to the method: as §1, §2, §3

For test [5], the target named is T5, S100P (Homo sapiens, UniProt P25815).
T5 sequence (P25815 1-95): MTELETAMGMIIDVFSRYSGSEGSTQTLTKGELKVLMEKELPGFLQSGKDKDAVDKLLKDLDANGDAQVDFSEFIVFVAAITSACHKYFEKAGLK
Nature of the test: direct fluorescence polarization (FP), S100P. Particulars: 50 nM labeled foldamer, 20 mM HEPES pH 7.5, 150 mM NaCl, 1 mM CaCl2, 0.5 mM TCEP, 0.01% Tween20, quadratic fit, mean ± SEM, three technical repeats, threshold 1 mM.
Excerpt: (§4) HTP (and also low-throughput) measurements generally need to be validated by an orthogonal approach to eliminate experimental artifacts. […] In this assay, the association of the fluorescently labeled foldamer and the S100 protein of interest is monitored, through the change in polarization of the emitted light by the fluorophore upon the binding event. In direct FP, the presence of the fluorophore might change the binding affinity of some foldamers. […] Nevertheless, we assumed that the fluorophore would affect all foldamers that target the same binding site to the same degree, because the foldamer scaffold is rigid.
as §2, §3

Test [6] has as its target T6, S100Z (Homo sapiens, UniProt Q8WXG8).
T6 sequence (Q8WXG8 1-99): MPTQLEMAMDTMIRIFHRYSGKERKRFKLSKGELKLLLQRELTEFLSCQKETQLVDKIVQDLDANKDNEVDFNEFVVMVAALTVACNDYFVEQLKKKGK
Nature of the test: direct fluorescence polarization (FP), S100Z. To be noted: 50 nM labeled foldamer, 20 mM HEPES pH 7.5, 150 mM NaCl, 1 mM CaCl2, 0.5 mM TCEP, 0.01% Tween20, quadratic fit, mean ± SEM, three technical repeats, threshold 1 mM.
Excerpt: as §4, §2, §3

For the compound `CC[C@H](C)[C@@H](CC(=O)N[C@H]1CCCC[C@@H]1C(=O)N[C@H]1CCCC[C@@H]1C(=O)N[C@H](CC(=O)N[C@H]1CCCC[C@@H]1C(=O)NCC(=O)N[C@@H](CCCCNC(=O)c1ccc2c(c1)C1(OC2=O)c2ccc(O)cc2Oc2cc(O)ccc21)C(N)=O)CC(C)C)NC(=O)[C@H]1CCCC[C@@H]1N` [fIL], the Kd in test [1] is more than 1000 µM; in test [2] it was 75 ± 3.6 µM; in test [3] it was more than 1000 µM; in test [4] it was more than 1000 µM; in test [5], 330 ± 92 µM; in test [6], more than 1000 µM.
`CC(C)C[C@@H](CC(=O)N[C@H]1CCCC[C@@H]1C(=O)NCC(=O)N[C@@H](CCCCNC(=O)c1ccc2c(c1)C1(OC2=O)c2ccc(O)cc2Oc2cc(O)ccc21)C(N)=O)NC(=O)[C@H]1CCCC[C@@H]1NC(=O)[C@H]1CCCC[C@@H]1NC(=O)C[C@@H](NC(=O)[C@H]1CCCC[C@@H]1N)C(C)C` [fVL]: the Kd in test [1] is more than 1000 µM; in test [2], 110 ± 5.4 µM; in test [3] it was more than 1000 µM; in test [4], more than 1000 µM; in test [5], more than 1000 µM; in test [6] it was more than 1000 µM.

As a reminder, the Kd is a measure of binding affinity in units of concentration.
